# Experiments:
# [1] = system: MBP-SUFU-FL, mutation of Tyr147; assay: Microscale thermophoresis, MBP-SUFU-FL mutated at Tyr147; assay type: binding, human; conditions: mutation of Tyr147 in MBP-SUFU-FL, data not shown
# Protocol: A 5-FAM-labelled peptide (FAM-GLI1p) comprising residues 115–131 of GLI1 (Supplementary Table S1b) was synthesized by Pepceuticals Ltd. A titration series of each recombinant protein was prepared by serial 1:1 dilutions in MST buffer (50 mM Tris–HCl pH 7.6, 150 mM NaCl, 10 mM MgCl2, 0.05% Tween-20) and mixed in a 1:1 ratio with FAM-GLI1p to give final concentrations of 50 nM FAM-GLI1p with MBP-SUFU constructs in the ranges 14.2–29 070 and 54–110 500 nM. Reactions were aspirated into glass capillaries and the thermophoretic movement of FAM-GLI1p was monitored using a Monolith NT.115 instrument (NanoTemper Technologies; Wienken et al., 2010[▶]), with a laser on for 30 s and off for 5 s and a laser power/voltage of 20% for MBP-SUFU-FL and the MBP-SUFU-FL mutants, 40% for MBP-SUFU-Δ and 80% for MBP-SUFU-SH. Fluorescence was measured before laser heating (F Cold) and after 30 s of laser-on time (F Hot). The normalized fluorescence F Hot/F Cold reflects the concentration ratio of labelled molecules. F Hot/F Cold was plotted directly and multiplied by a factor of […], yielding a relative change in fluorescence per thousand. K d was calculated from three independent thermophoresis measurements using NanoTemper software (NanoTemper Technologies). […]
# MBP-SUFU-Δ = biological target: T1, MBP-SUFU-Δ (Homo sapiens, UniProt Q9UMX1, DEL285-359/L360P/P281R/P282G/R280S/S279P); assay: SYPRO Orange initial fluorescence upon peptide addition, MBP-SUFU-Δ; assay type: binding; conditions: excitation 470 nm, emission 570 nm, pH 7.0
# T1 construct: subcloning different SUFU32–483 variants into vector pLJMBP4c; His tag (as in MBP-SUFU-FL; purified on HisTrap) (C); made in house; host or cells: Escherichia coli JM109 (DE3)
# Protocol: Recombinant MBP-SUFU proteins were diluted to 2.6 µM in 50 mM Na HEPES pH 7.0, 50 mM NaCl, 5 mM β-mercaptoethanol; the peptides GLI1p and GLI1p-SH (Supplementary Table S1b), synthesized by Dr W. Mawby (University of Bristol), were dissolved in the same buffer. Proteins were spun at 14 000g for 20 min at 4°C before adding SYPRO Orange (Molecular Probes) to a final concentration of 6×. Reaction volumes of 25 µl were prepared in 96-well PCR plates with 2.2 µM protein/SYPRO Orange solution and, where applicable, 44 µM peptide. Plates were sealed with optical tape, heated from 20 to 90°C in 12 s 0.2°C steps in an iCycler and fluorescence was detected using an excitation wavelength of 470 nm and an emission wavelength of 570 nm.
# Recombinant MBP-SUFU constructs were diluted to 2.5 µM in 50 mM Na HEPES pH 7.0, 50 mM NaCl, 5 mM β-mercaptoethanol and spun at 14 000g for 20 min at 4°C before the addition of SYPRO Orange to a final 5× concentration of dye. The fluorescence of 100 µl samples was measured in black 96-well plates (Nunc) using excitation at λ = 470 nm and emission at λ = 570 nm. GLI1p or GLI1p-SH peptides prepared in the same buffer as above were added in the given ratios and mixed before a second reading was taken. Readings post-peptide addition were divided by the corresponding pre-peptide addition measurements to obtain normalized results. […]
# T1 sequence (Q9UMX1 with tags, fused parts or gaps S279P/R280S/P281R/P282G/DEL285-359/L360P limits assumed, other chains not shown): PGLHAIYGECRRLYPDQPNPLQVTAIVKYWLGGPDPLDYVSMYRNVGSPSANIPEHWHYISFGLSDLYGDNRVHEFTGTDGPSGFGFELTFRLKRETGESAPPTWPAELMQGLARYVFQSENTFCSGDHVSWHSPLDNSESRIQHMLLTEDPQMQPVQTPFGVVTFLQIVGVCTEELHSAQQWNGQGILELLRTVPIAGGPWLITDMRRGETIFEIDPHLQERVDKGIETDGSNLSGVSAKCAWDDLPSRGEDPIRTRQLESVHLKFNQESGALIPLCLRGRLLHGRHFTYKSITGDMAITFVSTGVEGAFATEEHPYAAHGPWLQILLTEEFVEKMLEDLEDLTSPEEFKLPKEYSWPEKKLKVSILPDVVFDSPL
substance,measurement,setting,value
"GLI1p: human GLI1-derived peptide; residues 115–131, containing the highly conserved SYGH motif (TSPGGSYGHLSIGTMSP)",detectable binding,[1],abolished detectable binding
same,initial fluorescence upon addition of GLI1p,MBP-SUFU-Δ,no such effect
